Laboratory results: article PMC8247886, “Getting a Grip on the Undrugged: Targeting β‐Catenin with Fragment‐Based Methods” (Chemmedchem, 2021)
In brackets after ≈: the same amount, converted by molar mass.

Legend:
β-catenin = target: β-catenin; set-up: method as in PMID 11237626; conditions: read-out: binding affinity to β-catenin; cited from earlier work
β-catenin141–305 [1] = target: T1, β-catenin141–305 (Homo sapiens, UniProt P35222); test: Surface Plasmon Resonance (SPR) Kd determination; type: binding; conditions: mean of three independent experiments ± SD; 1:1 steady-state fit
T1 construct: Amino acids 141-305 of uniprot ID: P35222; GST (cleaved yes); made in house; host or cells: E. coli BL21 (DE3)
T1 sequence (P35222 141-305): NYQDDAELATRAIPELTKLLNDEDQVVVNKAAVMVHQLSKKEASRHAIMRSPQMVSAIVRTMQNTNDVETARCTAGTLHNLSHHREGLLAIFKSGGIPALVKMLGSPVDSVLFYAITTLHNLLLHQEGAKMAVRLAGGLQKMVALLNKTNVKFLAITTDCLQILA
Protocol: Surface Plasmon Resonance (SPR)
A Biacore T200 instrument was used for SPR analysis, β-catenin141-305 was pre-diluted to a concentration of 0.1 mg/mL with 10 mM sodium acetate buffer, pH 5.0 and immobilized at a density of 6000 –7000 response units on flow cell 2 of a Biacore CM5 chip. Carbonic anhydraseII served as a reference protein on flow cell 3 and flow cell 1 was kept blank and used as the reference surface. A mixture of 20 mM Tris, pH 7.5, 150 mM NaCl, 0.5 mM TCEP, 0.005% Tween20, 2 % dimethyl sulfoxide was used as assay buffer. After pre -equilibration of the chip with 10 blank injections, the Kd measurements were performed by injecting a concentration series of analyte (9 concentrations, 1:1 dilutions). BCL9 347-392 served as a positive control. K d values were determined by global fitting of the steady-state response for each of the 9 concentrations to a 1:1 interaction model using the Biacore T200 evaluation software. Each compound was injected three times and […]
average Kd values were calculated from the repeats. The reported data are the mean values of three independent experiments ± standard deviations. […]
Glutamax Supplement (Thermo Fisher Scientific, 35050061) with 10% FCS (GE Healthcare, SH30071.03). Transfections were performed with Lipofectamine LTX Reagent (Thermo Fisher, 15338100) according the manufacturer’s instructions.

[2] = Solubility in NMR buffer at pH 7.5 by quantitative NMR (maleic acid external standard); type: physicochemical; conditions: NMR buffer (Tris/NaCl with 2% DMSO-d6), aqueous buffer, kinetic from dmso stock; NMR buffer pH 7.5; intended concentration 500 or 2000 μM; read-out: Solub. pH 7.5
Protocol: buffer (Tris 25 mM, pH 7.5, NaCl 150 mM) containing 2% DMSO-d6. […]
Solubility of compounds was determined in NMR buffer at pH 7.5 (see above) by integrating the
signal of 250 µM maleic acid as an external standard relative to the integrals of the ligands. If the
intended concentrations of 500 µM respective 2000 µM were reached the value is reported as >
500 µM or > 2000 µM. […]

β-catenin141–305 [3] = target: T1, β-catenin141–305; test: 2D 15N NMR (TROSY/HSQC/HMQC) detected binding and Kd titration
Protocol: The construct for expression of β-catenin141-305 (Amino acids 141-305 of uniprot ID: P35222) is based on the previously reported R4 construct1. The plasmid was used to transform E. coli, strain BL21 (DE3) cells (Invitrogen). For protein expression, an overnight culture in LB-medium supplemented ampicillin (100 µg/mL) at 37 °C was prepared and diluted the next day with fresh 2xYT-medium. At OD600 of 0.8 the culture was cooled down to 18 °C and after induction with 0.5 mM IPTG incubated for 20 h. Cell pellets obtained by centrifugation at 5000 rpm were stored at - 20 °C. Cells were solubilized in buffer A (2X Dulbecco’s PBS; 500 mM NaCl; 10 % Glycerol; 0.5 mM TCEP; cOmplete™ Protease Inhibitor Cocktail; pH 7.4) and disrupted by sonication (Sonopuls, Bandelin) on ice. After 30 min the sonicated lysate was clarified by centrifugation (50 min, 13500 rpm, 4 °C). The supernatant was mixed with 20 mL Glutathione Sepharose® 4B resin (GE Healthcare) slurry, washed in lysis buffer, and steered for 3 hours on ice. The beads were spun down, loaded into a XK16 column cartridge and washed with lysis buffer until baseline. The protein was eluted with buffer B (2X Dulbecco’s PBS; 500 mM NaCl; 10 % Glycerol; 0.5 mM TCEP;; pH 7.4) + 25 mM L-Glutathione reduced. After cleavage with 2000 units Human Alpha Thrombin (Enzyme Research Laboratories) at room temperature overnight, the protein was collected in the flow-through fraction of a second GST run (GSTrap HP 5 mL column; GE Healthcare) using buffer B. The flow-through was concentrated by centrifugation using an Amicon© Ultra 15 mL Centrifugal Filter (Merck Millipore) and loaded onto a HiLoad Superdex S75 column (GE Healthcare) equilibrated with 50 mM Tris; 200 mM NaCl; 3 mM DTT; pH 8.
Fractions were analyzed by SDS-PAGE and fractions containing the desired protein were pooled and concentrated with an Amicon© Ultra 15 mL Centrifugal Filter (Merck Millipore). […]
For confirmation of hits obtained from STD-NMR by 2D 15N TROSY NMR4 a Bruker Avance III 600 MHz instrument with a 5 mm cryo-TCI probe and z-gradient was used. The experimental set up (automated sample preparation and transfer into the magnet by a Tecan Freedom Evo pipetting robot and a Bruker Sample Rail system, respectively) was identical. Each sample contained 25 uM 15N labeled β-catenin141-305 25 mM sodium phosphate, 150 mM sodium chloride, 100 mM sodium nitrate, 0.5mM TCEP pH 6.8 in H2O at 25 °C and 8% (v/v) D2O. The protein was incubated with 500 uM fragment in a 2.5 mm NMR tube at 25 °C and a d6DMSO concentration of 1%. Spectra were recorded with 48 transients and 64 data points in the indirect dimension. Manual comparison of the spectrum in the presence of the to be tested fragment with the DMSO reference spectrum reveal either line broadening or chemical shift perturbation of cross peaks. Both effects are indicative for compound binding. All processing and analysis was done with the Topspin 2.1 software (Bruker BioSpin). Further spectral comparisons were performed with the FELIX software package (Felix NMR Inc.) to combine manual with automated analysis5. […]
700MHz spectrometer equipped with a cryogenically cooled 5mm TCI probe. […]
The
WaterLOGSY pulse sequence was used as described before7. Selective water inversion was achieved with a double excitation sculpting element employing water selective Gaussian refocusing pulses (inversion bandwidth of 0.5 ppm, pulse length of 7.5 ms). The number of scans was set to 2048. Sample concentrations were 0.5 mM ligand and 0.25–10 µM β-catenin135-663 in […]

β-catenin141–305 [4] = target: T1, β-catenin141–305; test: Microscale Thermophoresis (MST) screening and Kd determination; type: binding
Protocol: buffer (Tris 25 mM, pH 7.5, NaCl 150 mM) containing 2% DMSO-d6. A stock solution of β-catenin135-663 (12.5 µM) was dialyzed before into Tris 25 mM pH 7.6 NaCl 150 mM and centrifuged at 4° C at 15000 rpm for 20 minutes. Intensity ratios Ilogsy/I1D are derived from scaling of the 1D intensity to the corresponding LOGSY intensity. STD GEMs were acquired with 1.5 µM […]
2.0; and 3.0 seconds for the saturation time build up curves to determine the initial rate constants2.
STD experiments were acquired with on and off resonance saturation at +0.1ppm and -40ppm respectively with 1048 scans each.
Solubility of compounds was determined in NMR buffer at pH 7.5 (see above) by integrating the signal of 250 µM maleic acid as an external standard relative to the integrals of the ligands. If the intended concentrations of 500 µM respective 2000 µM were reached the value is reported as > 500 µM or > 2000 µM. Compound 3 only reached a concentration of 1000 µM according to the QNMR experiment even though 2000 µM was intended, it’s solubility is therefore reported as […]
Microscale Thermophoresis.
Fluorescence labeling of β-catenin141-305 with the NT647 dye was achieved using the Monolith NT.115 Protein Labeling Kit RED-NHS according to the manufacturer’s protocol (NanoTemper Technologies, Munich, Germany). The BCL9 peptide was used as positive control for assay development to achieve a reliably detectable change in the thermophoretic mobility ( ΔFnorm). […]
Final assay conditions were 50 nM NT647 labeled β-catenin141-305 in PBS pH 6.8 supplemented with 100 mM NaNO3, 0.5 mM TCEP and 0.05% Tween-20 at 25° C. Fragment screening detected […]
by MST was carried out as previously described8,9. […] Manual inspection of all MST traces was used to reject non-standard traces stemming from protein aggregation, bleaching, or fluorescence quenching. ΔFnorm values (ΔFnorm=Fhot/Fcold) were calculated and the mean values of the duplicates were compared to the mean values of the DMSO negative control. […] Protein integrity over the entire FBS was monitored by the BCL9 peptide positive control. […]

[5] = 15N NMR titration, single titration, mean of curves of selected cross peaks ± SD, read-out: HSQC Kd

| Compound | Kd (β-catenin141–305 [1]) | solubility [2] | Kd (β-catenin141–305 [3]; [5]) | other results |
| --- | --- | --- | --- | --- |
| TCF4: transcription factor, natural binding partner of β-catenin | – | – | – | Kd (β-catenin): ~20 nM |
| CN1CC(c2ccccc2)Nc2ccccc2C1=O (stereo not shown) [Compound 3] | – | 1000 µM (≈ 252 µg/mL) | 1.1 ± 0.255 mM | – |
| CN1C[C@H](c2cccc(C#N)c2)Oc2ccccc2C1=O [Compound 7] | > 10 mM | > 2000 µM | > 10 mM | chemical shift perturbations (CSPs) in 2D 15N NMR (β-catenin141–305 [3]; 500 μM compound): did not show any CSPs |

Second part, led by results:

| Kd (β-catenin141–305 [1]) | solubility [2] | Kd (β-catenin141–305 [3]; [5]) | Compound | other results |
| --- | --- | --- | --- | --- |
| 1.39 ± 0.046 mM | > 2000 µM | 0.915 ± 0.303 mM | CN1C[C@@H](c2cccc(C#N)c2)Oc2ccccc2C1=O [Compound 6] | Kd (β-catenin141–305 [3]; titration curve of single cross peak D207, read-out: NMR Kd, cross peak D207): 1.01 mM; Kd (β-catenin141–305 [3]; titration curve of single cross peak G245, read-out: NMR Kd, cross peak G245): 0.575 mM; Kd (β-catenin141–305 [3]; titration curve of single cross peak V208, read-out: NMR Kd, cross peak V208): 1.16 mM |
| > 10 mM | > 2000 µM | 2.26 ± 1.26 mM | CN1C[C@@H](c2ccccc2)Oc2ccccc2C1=O [Compound 4] | – |
| – | > 500 µM | – | CC1SCC(=O)Nc2cc(Cl)ccc21 (stereo not shown) [Compound 2] | Kd (β-catenin141–305 [4]; 50 nM labeled β-catenin141–305, single titration): 0.82 ± 0.32 mM; MST binding signal ΔΔF nom (β-catenin141–305 [4]; 500 μM compound, 1 % DMSO, standard deviation with DMSO 1.8‰): 7.5 ‰ |
| > 10 mM | > 2000 µM | > 10 mM | CN1C[C@H](c2ccccc2)Oc2ccccc2C1=O [Compound 5] | – |
